Data: PMC5065787 (Bioorganic & medicinal chemistry, 2016)

What was measured:
[1] = cited from earlier work
[2] = biological target: T1, WT h15-LOX-1 (Homo sapiens, UniProt P16050); assay: Steady-state substrate kinetics, WT; type: biochemical; conditions: error in parentheses
T1 sequence (P16050 1-662): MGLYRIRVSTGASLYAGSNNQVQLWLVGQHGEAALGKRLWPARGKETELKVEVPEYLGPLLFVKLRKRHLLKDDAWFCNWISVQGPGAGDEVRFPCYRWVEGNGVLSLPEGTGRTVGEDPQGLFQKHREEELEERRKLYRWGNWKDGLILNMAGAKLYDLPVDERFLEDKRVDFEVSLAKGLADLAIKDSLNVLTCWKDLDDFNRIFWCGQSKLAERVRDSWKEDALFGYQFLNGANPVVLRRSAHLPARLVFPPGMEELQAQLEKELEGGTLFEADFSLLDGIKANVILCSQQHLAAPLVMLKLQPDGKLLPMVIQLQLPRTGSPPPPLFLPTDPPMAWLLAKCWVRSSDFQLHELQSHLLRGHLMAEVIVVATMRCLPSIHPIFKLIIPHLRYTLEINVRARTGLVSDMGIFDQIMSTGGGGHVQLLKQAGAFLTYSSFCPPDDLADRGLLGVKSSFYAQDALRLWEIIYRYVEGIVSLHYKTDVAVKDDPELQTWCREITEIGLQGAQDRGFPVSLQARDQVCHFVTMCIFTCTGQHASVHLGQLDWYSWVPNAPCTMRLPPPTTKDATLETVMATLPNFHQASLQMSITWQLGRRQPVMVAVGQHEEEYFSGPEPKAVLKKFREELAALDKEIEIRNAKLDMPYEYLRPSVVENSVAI

[3] = biological target: T2, h15-LOX-1 F414I (Homo sapiens, UniProt P16050, F414I); assay: Steady-state substrate kinetics, F414I; type: biochemical; conditions: error in parentheses
T2 sequence (P16050 1-662 F414I): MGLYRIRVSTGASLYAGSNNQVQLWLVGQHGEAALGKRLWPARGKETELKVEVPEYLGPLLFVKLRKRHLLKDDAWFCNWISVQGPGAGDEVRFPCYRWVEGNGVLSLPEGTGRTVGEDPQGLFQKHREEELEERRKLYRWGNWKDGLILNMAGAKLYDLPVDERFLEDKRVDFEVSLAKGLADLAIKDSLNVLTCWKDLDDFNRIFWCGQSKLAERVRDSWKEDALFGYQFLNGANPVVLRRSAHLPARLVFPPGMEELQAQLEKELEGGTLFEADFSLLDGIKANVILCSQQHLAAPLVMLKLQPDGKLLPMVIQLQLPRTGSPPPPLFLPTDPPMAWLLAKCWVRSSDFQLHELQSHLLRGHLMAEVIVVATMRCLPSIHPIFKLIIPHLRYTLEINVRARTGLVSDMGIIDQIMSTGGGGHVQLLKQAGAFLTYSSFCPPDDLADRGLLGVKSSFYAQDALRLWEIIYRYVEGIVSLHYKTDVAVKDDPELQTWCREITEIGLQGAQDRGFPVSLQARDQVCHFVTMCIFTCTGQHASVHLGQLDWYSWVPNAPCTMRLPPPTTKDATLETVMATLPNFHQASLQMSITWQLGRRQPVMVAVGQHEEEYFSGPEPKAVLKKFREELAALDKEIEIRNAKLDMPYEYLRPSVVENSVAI

[4] = possibly due to cellular lability of the ester moiety; cited from earlier work
[5] = test system: h15-LOX-1; conditions: cited from earlier work
[6] = test system: dog LOX ortholog; conditions: cited from earlier work
[7] = test system: rat LOX ortholog; conditions: cited from earlier work
[8] = cited from earlier work; remark: listed apart in the source
[9] = substrate: CCCCC/C=C\C/C=C\C/C=C\C/C=C\CCCC(=O)O; assay: Steady-state substrate kinetics, Q547L; type: biochemical, human; conditions: other: Q547L; error in parentheses; unit inferred; pH 7.5
[10] = substrate: CCCCC/C=C\C/C=C\C/C=C\C/C=C\CCCC(=O)O; assay: Steady-state substrate kinetics, E356Q; type: biochemical, human; conditions: other: E356Q; error in parentheses; unit inferred; pH 7.5
[11] = substrate: CCCCC/C=C\C/C=C\C/C=C\C/C=C\CCCC(=O)O; assay: Steady-state substrate kinetics, F414W; type: biochemical, human; conditions: other: F414W; error in parentheses; unit inferred; pH 7.5
[12] = substrate: CCCCC/C=C\C/C=C\C/C=C\C/C=C\CCCC(=O)O; assay: Steady-state substrate kinetics, F414I; type: biochemical, human; conditions: other: F414I; error in parentheses; unit inferred; pH 7.5
[13] = substrate: CCCCC/C=C\C/C=C\C/C=C\C/C=C\CCCC(=O)O; assay: Steady-state substrate kinetics, L407A; type: biochemical, human; conditions: other: L407A; error in parentheses; unit inferred; pH 7.5

## CNc1oc(-c2cccc3ccccc23)nc1C#N [ML351, 5-(methylamino)-2-(naphthalene-1-yl)oxazole-4-carbonitrile]
[1]
  in vivo activity in mice: exhibits in vivo activity

## CCCCC/C=C\C/C=C\CCCCCCCC(=O)O [LA, linoleic acid]
[2]; no unit in table (sec^−1)
  kcat: 11 (0.4)
[2]; substrate 1-20 µM, unit inferred
  Km: 7.7 µM
[3]; no unit in table (sec^−1)
  kcat: 1.6 (0.03)
[3]; unit inferred
  Km: 6.1 µM

## O=C(OCC#CCSc1nnc(-c2cccc3ccccc23)o1)c1cccs1 [ML094, 4-(5-(Naphthalen-1-yl)-1,3,4-oxadiazol-2-ylthio)but-2-ynylthiophene-2-carboxylate]
[4]
  activity in vivo: no activity

## O=C(Nc1ccc(F)cc1Cl)c1c[nH]nn1 [BLX-2477, N-(2-chloro-4-fluorophenyl)triazole-4-carboxamide]
[5]
  potency against h15-LOX-1: 99 nM
[6]
  potency against dog LOX ortholog: not potent
[7]
  potency against rat LOX ortholog: not potent
[8]
  adverse off-target effects in mini-pigs: adverse off-target effects

## CCCCCc1ccc(S(=O)(=O)NCCc2c(-c3ccc(C(F)(F)F)cc3)[nH]c3ccccc23)cc1 [tryptamine sulfonamide]
[5]
  potency against h15-LOX-1: 21 nM

B1: h15-LOX-1 Q547L (Homo sapiens; Q547L) (protein)
chain: MGLYRIRVSTGASLYAGSNNQVQLWLVGQHGEAALGKRLWPARGKETELKVEVPEYLGPLLFVKLRKRHLLKDDAWFCNWISVQGPGAGDEVRFPCYRWVEGNGVLSLPEGTGRTVGEDPQGLFQKHREEELEERRKLYRWGNWKDGLILNMAGAKLYDLPVDERFLEDKRVDFEVSLAKGLADLAIKDSLNVLTCWKDLDDFNRIFWCGQSKLAERVRDSWKEDALFGYQFLNGANPVVLRRSAHLPARLVFPPGMEELQAQLEKELEGGTLFEADFSLLDGIKANVILCSQQHLAAPLVMLKLQPDGKLLPMVIQLQLPRTGSPPPPLFLPTDPPMAWLLAKCWVRSSDFQLHELQSHLLRGHLMAEVIVVATMRCLPSIHPIFKLIIPHLRYTLEINVRARTGLVSDMGIFDQIMSTGGGGHVQLLKQAGAFLTYSSFCPPDDLADRGLLGVKSSFYAQDALRLWEIIYRYVEGIVSLHYKTDVAVKDDPELQTWCREITEIGLQGAQDRGFPVSLQARDQVCHFVTMCIFTCTGQHASVHLGLLDWYSWVPNAPCTMRLPPPTTKDATLETVMATLPNFHQASLQMSITWQLGRRQPVMVAVGQHEEEYFSGPEPKAVLKKFREELAALDKEIEIRNAKLDMPYEYLRPSVVENSVAI
[9]
  Km: 11 µM

B2: h15-LOX-1 E356Q (Homo sapiens; E356Q) (protein)
chain: MGLYRIRVSTGASLYAGSNNQVQLWLVGQHGEAALGKRLWPARGKETELKVEVPEYLGPLLFVKLRKRHLLKDDAWFCNWISVQGPGAGDEVRFPCYRWVEGNGVLSLPEGTGRTVGEDPQGLFQKHREEELEERRKLYRWGNWKDGLILNMAGAKLYDLPVDERFLEDKRVDFEVSLAKGLADLAIKDSLNVLTCWKDLDDFNRIFWCGQSKLAERVRDSWKEDALFGYQFLNGANPVVLRRSAHLPARLVFPPGMEELQAQLEKELEGGTLFEADFSLLDGIKANVILCSQQHLAAPLVMLKLQPDGKLLPMVIQLQLPRTGSPPPPLFLPTDPPMAWLLAKCWVRSSDFQLHQLQSHLLRGHLMAEVIVVATMRCLPSIHPIFKLIIPHLRYTLEINVRARTGLVSDMGIFDQIMSTGGGGHVQLLKQAGAFLTYSSFCPPDDLADRGLLGVKSSFYAQDALRLWEIIYRYVEGIVSLHYKTDVAVKDDPELQTWCREITEIGLQGAQDRGFPVSLQARDQVCHFVTMCIFTCTGQHASVHLGQLDWYSWVPNAPCTMRLPPPTTKDATLETVMATLPNFHQASLQMSITWQLGRRQPVMVAVGQHEEEYFSGPEPKAVLKKFREELAALDKEIEIRNAKLDMPYEYLRPSVVENSVAI
[10]
  Km: 4.1 µM

B3: h15-LOX-1 F414W (Homo sapiens; F414W) (protein)
chain: MGLYRIRVSTGASLYAGSNNQVQLWLVGQHGEAALGKRLWPARGKETELKVEVPEYLGPLLFVKLRKRHLLKDDAWFCNWISVQGPGAGDEVRFPCYRWVEGNGVLSLPEGTGRTVGEDPQGLFQKHREEELEERRKLYRWGNWKDGLILNMAGAKLYDLPVDERFLEDKRVDFEVSLAKGLADLAIKDSLNVLTCWKDLDDFNRIFWCGQSKLAERVRDSWKEDALFGYQFLNGANPVVLRRSAHLPARLVFPPGMEELQAQLEKELEGGTLFEADFSLLDGIKANVILCSQQHLAAPLVMLKLQPDGKLLPMVIQLQLPRTGSPPPPLFLPTDPPMAWLLAKCWVRSSDFQLHELQSHLLRGHLMAEVIVVATMRCLPSIHPIFKLIIPHLRYTLEINVRARTGLVSDMGIWDQIMSTGGGGHVQLLKQAGAFLTYSSFCPPDDLADRGLLGVKSSFYAQDALRLWEIIYRYVEGIVSLHYKTDVAVKDDPELQTWCREITEIGLQGAQDRGFPVSLQARDQVCHFVTMCIFTCTGQHASVHLGQLDWYSWVPNAPCTMRLPPPTTKDATLETVMATLPNFHQASLQMSITWQLGRRQPVMVAVGQHEEEYFSGPEPKAVLKKFREELAALDKEIEIRNAKLDMPYEYLRPSVVENSVAI
[11]
  Km: 6.5 µM

B4: h15-LOX-1 F414I (Homo sapiens; F414I) (protein)
chain: MGLYRIRVSTGASLYAGSNNQVQLWLVGQHGEAALGKRLWPARGKETELKVEVPEYLGPLLFVKLRKRHLLKDDAWFCNWISVQGPGAGDEVRFPCYRWVEGNGVLSLPEGTGRTVGEDPQGLFQKHREEELEERRKLYRWGNWKDGLILNMAGAKLYDLPVDERFLEDKRVDFEVSLAKGLADLAIKDSLNVLTCWKDLDDFNRIFWCGQSKLAERVRDSWKEDALFGYQFLNGANPVVLRRSAHLPARLVFPPGMEELQAQLEKELEGGTLFEADFSLLDGIKANVILCSQQHLAAPLVMLKLQPDGKLLPMVIQLQLPRTGSPPPPLFLPTDPPMAWLLAKCWVRSSDFQLHELQSHLLRGHLMAEVIVVATMRCLPSIHPIFKLIIPHLRYTLEINVRARTGLVSDMGIIDQIMSTGGGGHVQLLKQAGAFLTYSSFCPPDDLADRGLLGVKSSFYAQDALRLWEIIYRYVEGIVSLHYKTDVAVKDDPELQTWCREITEIGLQGAQDRGFPVSLQARDQVCHFVTMCIFTCTGQHASVHLGQLDWYSWVPNAPCTMRLPPPTTKDATLETVMATLPNFHQASLQMSITWQLGRRQPVMVAVGQHEEEYFSGPEPKAVLKKFREELAALDKEIEIRNAKLDMPYEYLRPSVVENSVAI
[12]
  Km: 11 µM

B5: h15-LOX-1 L407A (Homo sapiens; L407A) (protein)
chain: MGLYRIRVSTGASLYAGSNNQVQLWLVGQHGEAALGKRLWPARGKETELKVEVPEYLGPLLFVKLRKRHLLKDDAWFCNWISVQGPGAGDEVRFPCYRWVEGNGVLSLPEGTGRTVGEDPQGLFQKHREEELEERRKLYRWGNWKDGLILNMAGAKLYDLPVDERFLEDKRVDFEVSLAKGLADLAIKDSLNVLTCWKDLDDFNRIFWCGQSKLAERVRDSWKEDALFGYQFLNGANPVVLRRSAHLPARLVFPPGMEELQAQLEKELEGGTLFEADFSLLDGIKANVILCSQQHLAAPLVMLKLQPDGKLLPMVIQLQLPRTGSPPPPLFLPTDPPMAWLLAKCWVRSSDFQLHELQSHLLRGHLMAEVIVVATMRCLPSIHPIFKLIIPHLRYTLEINVRARTGAVSDMGIFDQIMSTGGGGHVQLLKQAGAFLTYSSFCPPDDLADRGLLGVKSSFYAQDALRLWEIIYRYVEGIVSLHYKTDVAVKDDPELQTWCREITEIGLQGAQDRGFPVSLQARDQVCHFVTMCIFTCTGQHASVHLGQLDWYSWVPNAPCTMRLPPPTTKDATLETVMATLPNFHQASLQMSITWQLGRRQPVMVAVGQHEEEYFSGPEPKAVLKKFREELAALDKEIEIRNAKLDMPYEYLRPSVVENSVAI
[13]
  Km: 5.5 µM
